Counter-ions that a name gives are not always drawn.

The source of these data is patent US11179412B2, “Methods of treating conditions involving elevated inflammatory response” (University of Pittsburgh—Of the Commonwealth System of …, priority 2017, dated 2021).

The assay relates to STING activation (IFNβ release) in iBMDMs. In words: IFNβ release ELISA after STING ligand (or LPS) stimulation, iBMDMs. To be noted: iBMDMs; 3′3′-cGAMP 10 μg/ml, 16 hours; compound 10 μM. The class given is cell-based, mouse. The text has this:
Commercially available enzyme-linked immunosorbent assay (ELISA) kits were used to measure the concentrations of mouse IFNβ (Thermo Fisher Scientific) or human IFNβ (Thermo Fisher Scientific) in culture medium according to the manufacturer's instructions. […]
Consider `COc1cc(OC2CCN(C)CC2)ccc1Nc1ncc2c(n1)n(C1CCCC1)c(=O)n2C` [AZ 3146], for which the “fold increase in IFN-β release” value is 0.10 fold.
Consider `CC(C)OC(=O)OCOP(=O)(CO[C@H](C)Cn1cnc2c(N)ncnc21)OCOC(=O)OC(C)C` [Tenofovir Disoproxil Fumarate], for which the “fold increase in IFN-β release” value worked out at 2.88 fold.
In the case of `N#Cc1c(O)c2c(-c3ccc(-c4ccccc4O)cc3)csc2[nH]c1=O` [A-769662], the “fold increase in IFN-β release” value turned out to be 2.13 fold.
In the case of `c1ccc(CNc2nc(NCc3ccccc3)c3ccccc3n2)cc1` [DBeQ], the “fold increase in IFN-β release” value is 2.18 fold.
Turning to `O=C(c1cn(Cc2cncn2Cc2ccc(Br)cc2)cc1-c1cccc2ccccc12)N1CCOCC1` [LB42708], the “fold increase in IFN-β release” value worked out at 1.35 fold.
Take `COCCCC/C(=N\OCCN)c1ccc(C(F)(F)F)cc1` [Fluvoxamine maleate]: the “fold increase in IFN-β release” value was determined as 1.80 fold.
Turning to `CCc1c(C(=O)NCCc2ccc(N3CCCCC3)cc2)[nH]c2ccc(Cl)cc12` [Org 27569], the “fold increase in IFN-β release” value is 1.74 fold.
For `Cc1cc([C@@H](C)Nc2ccccc2C(=O)O)c2nc(N3CCOCC3)cc(=O)n2c1` [AZD6482], the “fold increase in IFN-β release” value was 4.47 fold.
As for `O=C(NC(NC(=S)Nc1ccc(F)c([N+](=O)[O-])c1)C(Cl)(Cl)Cl)C(c1ccccc1)c1ccccc1` (centres unmarked) [CGK 733], the “fold increase in IFN-β release” value came out at 2.50 fold.
To `Nc1cccc2c1C(=O)N(C1CCC(=O)NC1=O)C2=O` (centres unmarked) [Pomalidomide] belongs 2.12 fold; to `O=C(NOCC1CC1)c1ccc(F)c(F)c1Nc1ccc(I)cc1Cl` [PD184352 (CI-1040)], 0.94 fold; to `COc1ccc(-c2cnc3c(-c4cccc5ncccc45)cnn3c2)cc1` [ML347], 1.95 fold.
To `Cl.Cl.O=S(=O)(NCCNC/C=C/c1ccc(Br)cc1)c1cccc2cnccc12` [H 89 2HCl] belongs 1.91 fold; to `c1ccc(CC2=NCCN2)cc1` [Tolazoline HCl], 1.46 fold; to `N#Cc1c(NC(=O)c2cccc3ccccc23)sc2c1CCCC2` [JNK Inhibitor IX], 0.53 fold.
To `COc1nc(C)cnc1NS(=O)(=O)c1cccnc1-c1ccc(-c2nnco2)cc1` [Zibotentan (ZD4054), Zibotentan] belongs 1.17 fold; to `Cc1cc(Nc2cc(N3CCN(C)CC3)nc(Sc3ccc(NC(=O)C4CC4)cc3)n2)[nH]n1` [VX-680 (Tozasertib, MK-0457), Tozasertib], 0.91 fold.
In the case of `COc1ccccc1OCCNCC(O)COc1cccc2[nH]c3ccccc3c12` (centres unmarked) [Carvedilol], the “fold increase in IFN-β release” value was 1.87 fold.
For the compound `O=C1CC(=O)c2c(Cl)c(Cl)c(Cl)c(Cl)c21` [TCID], the “fold increase in IFN-β release” value amounted to 1.43 fold.
`COc1ccc(C(=O)N2CCCC2=O)cc1` [Aniracetam]: the “fold increase in IFN-β release” value was found to be 1.02 fold.
For `COc1ccc2c(c1)c(C1=C(c3c[nH]c4ccccc34)C(=O)NC1=O)cn2CCCN(C)C` [Go 6983] the value was 0.26 fold.
For `C[C@H](NC(=O)[C@@H](O)c1cc(F)cc(F)c1)C(=O)N[C@@H]1C(=O)N(C)c2ccccc2-c2ccccc21` [LY411575] the value was 0.26 fold; for `CNC(=O)c1ccc(N2C(=S)N(c3ccc(C#N)c(C(F)(F)F)c3)C(=O)C2(C)C)cc1F` [Enzalutamide (MDV3100), Enzalutamide], 0.50 fold.
For `NC(=O)c1cccc(-c2cccc(OC(=O)NC3CCCCC3)c2)c1` [URB597], the “fold increase in IFN-β release” value is 2.07 fold.
Take `COc1cc2c(Nc3ccc(Br)cc3F)ncnc2cc1OCC1CCN(C)CC1` [Vandetanib (ZD6474), Vandetanib]: the “fold increase in IFN-β release” value is 0.25 fold.
In the case of `C[C@]1(O)C[C@@H](c2nc(-c3ccc4ccc(-c5ccccc5)nc4c3)c3c(N)nccn32)C1` [OSI-906 (Linsitinib), Linsitinib], the “fold increase in IFN-β release” value was 0.66 fold.
To `C[C@H](N[C@@H](CCc1ccccc1)C(=O)O)C(=O)N1CCC[C@H]1C(=O)O.O.O` [Enalaprilat Dihydrate] belongs 2.71 fold.
For `CCCN[C@H]1CCc2nc(N)sc2C1` [Pramipexole] the value was 2.07 fold.
As for `Nc1nc(OCc2cc(Br)cs2)c2[nH]cnc2n1` [Lomeguatrib], the “fold increase in IFN-β release” value was 1.27 fold.
For `CN1CCc2cc3c(cc2[C@H]1[C@@H]1OC(=O)c2c1ccc1c2OCO1)OCO3` [(+)-Bicuculline] the value was 1.26 fold; for `C=C1C(=O)O[C@@H]2/C=C(\C)CC/C=C(\C)CC[C@@H]12` [Costunolide], 0.37 fold; for `COc1cccc2c1C(=O)c1c(O)c3c(c(O)c1C2=O)C[C@@](O)(C(C)=O)C[C@@H]3O[C@H]1C[C@H](N)[C@H](O)[C@H](C)O1` [Daunorubicin HCl], 0.11 fold.
For `Cc1cc2c(cc1CC(=O)c1sccc1S(=O)(=O)Nc1onc(C)c1Cl)OCO2` [Sitaxentan sodium] the value was 1.16 fold; for Tropicamide, 2.09 fold; for `Cc1sc2c(c1C)C(c1ccc(Cl)cc1)=N[C@@H](CC(=O)Nc1ccc(O)cc1)c1nnc(C)n1-2` [OTX015], 0.43 fold.
For `COc1ccc2cc([C@H](C)C(=O)O)ccc2c1` [Naproxen] the value was 1.46 fold.
As for `COc1ccc2c(c1)C(=O)N(CCc1ccc(S(=O)(=O)NC(=O)NC3CCCCC3)cc1)C(=O)C2(C)C` [Gliquidone], the “fold increase in IFN-β release” value worked out at 1.20 fold.
To `Cc1cc(OCCCS(C)(=O)=O)cc(C)c1-c1cccc(COc2ccc3c(c2)OC[C@H]3CC(=O)O)c1` [TAK-875] belongs 1.17 fold; to `C[S+]([O-])c1ccc(-c2nc(-c3ccc(F)cc3)c(-c3ccncc3)[nH]2)cc1` (centres unmarked) [SB203580], 0.35 fold; to `COc1ccc(C2CNC(=O)C2)cc1OC1CCCC1` (centres unmarked) [Rolipram], 1.85 fold.
For `CCCCc1nc(Cl)c(CO)n1Cc1ccc(-c2ccccc2-c2nn[nH]n2)cc1` [Losartan Potassium (DuP 753), Losartan Potassium] the value was 1.35 fold.
For `Cc1ccc(S(=O)(=O)NC(=O)NN2CC3CCCC3C2)cc1` (centres unmarked) [Gliclazide] the value was 1.93 fold.
On to `C=CCn1c(=O)c2cnc(Nc3ccc(N4CCN(C)CC4)cc3)nc2n1-c1cccc(C(C)(C)O)n1` [MK-1775], for which the “fold increase in IFN-β release” value is recorded as 4.54 fold.
Regarding `C[C@@H]1COCCN1c1cc(C2(S(C)(=O)=O)CC2)nc(-c2cccc3[nH]ccc23)n1` [AZ20], the “fold increase in IFN-β release” value is on record as 0.32 fold.
To `N#Cc1ccc(C(c2ccc(C#N)cc2)n2cncn2)cc1` [Letrozole] belongs 0.61 fold; to `Cc1noc(-c2ccc(CSCCC(=O)O)cc2)c1NC(=O)OC(C)c1ccccc1Cl` (centres unmarked) [Ki16425], 1.41 fold; to `C/C(=N\NC(=S)N1CCC1)c1ccccn1` [NSC 319726], 2.43 fold.
Turning to `C=CC(=O)Nc1cccc(Nc2nc(Nc3ccc(OCCOC)cc3)ncc2F)c1` [AVL-292], the “fold increase in IFN-β release” value came out at 0.16 fold.
To `O=C(Nc1ccccc1)N1CCN(c2nc(-c3ccccc3)ns2)CC1` [JNJ-1661010] belongs 1.03 fold; to `COc1cc2c(Nc3ccc(NC(=O)c4ccccc4)cc3)ncnc2cc1OCCCN1CCOCC1` [ZM 447439], 0.69 fold.
To `CS(=O)(=O)c1cccc(CNc2nc(Nc3ccc4c(c3)CCC(=O)N4)ncc2C(F)(F)F)c1` [PF-573228] belongs 0.87 fold; to `C[C@@H](Oc1cc(-n2cnc3ccc(CN4CCN(C)CC4)cc32)sc1C(N)=O)c1ccccc1C(F)(F)F` [GSK461364], 0.21 fold.
For `CC(=O)Nc1cccc2c1c(Sc1ccc(Cl)cc1)c(C)n2CC(=O)O` [AZD1981] the value was 3.11 fold; for `Cc1[nH]c2ccccc2c1CCNC(=O)c1cccs1` [CK-636], 2.06 fold.
In the case of `CN[C@H]1CC[C@@H](c2ccc(Cl)c(Cl)c2)c2ccccc21` [Sertraline HCl], the “fold increase in IFN-β release” value worked out at 0.22 fold.
To `C[C@@H](NCCCc1cccc(C(F)(F)F)c1)c1cccc2ccccc12` [Cinacalcet HCl] belongs 0.55 fold; to `Cc1[nH]c(/C=C2\C(=O)Nc3ccc(S(=O)(=O)Cc4c(Cl)cccc4Cl)cc32)c(C)c1C(=O)N1CCC[C@@H]1CN1CCCC1` [PHA-665752], 0.43 fold; to `C[C@H]1COC2=C1C(=O)C(=O)c1c2ccc2c1CCCC2(C)C` [Cryptotanshinone], 0.17 fold.
With `NC(=O)c1cccc(-c2cc(Nc3ccc(OC(F)(F)F)cc3)ncn2)c1` [GNF-2], the “fold increase in IFN-β release” value is listed as 0.56 fold.
Regarding `CN1CC(=O)N2[C@H](c3ccc4c(c3)OCO4)c3[nH]c4ccccc4c3C[C@@H]2C1=O` [Tadalafil], the “fold increase in IFN-β release” value is reported as 2.66 fold.
To `Oc1cc(O)cc(/C=C/c2ccc(O)c(O)c2)c1` [Piceatannol] belongs 0.42 fold; to `Cn1c(N2CCCCS2(=O)=O)nc(C(=O)NCc2ccc(F)cc2)c(O)c1=O` [BMS-707035], 1.59 fold.
In the case of `COC(=O)C1=C(C#N)NC(C)=C(C(=O)OC(C)C)C1c1cccc([N+](=O)[O-])c1` (centres unmarked) [Nilvadipine], the “fold increase in IFN-β release” value turned out to be 1.79 fold.
To `CC(C)c1cc(-c2n[nH]c(=O)n2-c2ccc3c(ccn3C)c2)c(O)cc1O` [Ganetespib (STA-9090), Ganetespib] belongs 1.80 fold.
Take `Cc1cc(C(C)(C)C)c(O)c(C)c1CC1=NCCN1` [Oxymetazoline HCl]: the “fold increase in IFN-β release” value was 1.16 fold.
